According to ChEMBL document CHEMBL4507324 (2021):

Assays:
Settings in all cases: Compound concentration 100.0 nM
[1] = test system: Tyrosine-protein kinase ABL1 (Homo sapiens), P00519 [Q252H]
[2] = biological target: Activin receptor type-1 (Homo sapiens) (UniProt Q04771)
[3] = biological target: RAC-alpha serine/threonine-protein kinase (Homo sapiens) (UniProt P31749)
[4] = biological target: Aurora kinase A (Homo sapiens) (UniProt O14965)
[5] = biological target: Tyrosine-protein kinase receptor UFO (Homo sapiens) (UniProt P30530)
Tyrosine-protein kinase receptor UFO (Homo sapiens), sequence (P30530 whole entry): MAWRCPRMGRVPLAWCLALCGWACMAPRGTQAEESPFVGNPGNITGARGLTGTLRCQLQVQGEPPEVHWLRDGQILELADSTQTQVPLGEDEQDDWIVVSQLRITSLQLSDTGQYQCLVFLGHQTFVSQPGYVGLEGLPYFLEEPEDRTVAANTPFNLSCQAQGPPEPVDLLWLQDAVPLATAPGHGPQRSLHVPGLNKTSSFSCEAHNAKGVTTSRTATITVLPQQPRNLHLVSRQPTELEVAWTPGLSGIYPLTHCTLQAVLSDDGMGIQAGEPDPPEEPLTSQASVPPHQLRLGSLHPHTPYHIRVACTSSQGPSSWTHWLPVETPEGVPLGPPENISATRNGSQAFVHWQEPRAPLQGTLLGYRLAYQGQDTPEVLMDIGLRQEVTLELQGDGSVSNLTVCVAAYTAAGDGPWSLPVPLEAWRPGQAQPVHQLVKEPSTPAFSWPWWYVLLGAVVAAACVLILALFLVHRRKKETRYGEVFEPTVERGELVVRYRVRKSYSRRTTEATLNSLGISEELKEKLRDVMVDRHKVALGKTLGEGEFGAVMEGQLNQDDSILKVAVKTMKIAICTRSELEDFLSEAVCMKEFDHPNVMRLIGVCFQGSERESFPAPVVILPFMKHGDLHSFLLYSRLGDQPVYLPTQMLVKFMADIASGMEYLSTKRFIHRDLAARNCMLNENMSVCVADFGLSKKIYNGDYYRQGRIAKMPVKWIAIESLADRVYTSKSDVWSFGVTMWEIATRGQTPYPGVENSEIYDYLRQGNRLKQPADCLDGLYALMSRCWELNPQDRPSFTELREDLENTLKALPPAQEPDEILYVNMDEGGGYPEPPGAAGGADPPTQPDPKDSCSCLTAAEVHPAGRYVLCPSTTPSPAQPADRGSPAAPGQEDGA

[6] = biological target: BMP-2-inducible protein kinase (Homo sapiens) (UniProt Q9NSY1)
[7] = biological target: Bone morphogenetic protein receptor type-1B (Homo sapiens) (UniProt O00238)
[8] = biological target: Cytoplasmic tyrosine-protein kinase BMX (Homo sapiens) (UniProt P51813)
[9] = biological target: Serine/threonine-protein kinase BRSK2 (Homo sapiens) (UniProt Q8IWQ3)
[10] = biological target: Mitotic checkpoint serine/threonine-protein kinase BUB1 (Homo sapiens) (UniProt O43683)
[11] = biological target: Dual specificity protein kinase CLK3 (Homo sapiens) (UniProt P49761)
[12] = biological target: Casein kinase I isoform delta (Homo sapiens) (UniProt P48730)
[13] = biological target: Discoidin domain-containing receptor 2 (Homo sapiens) (UniProt Q16832)
[14] = biological target: Receptor tyrosine-protein kinase erbB-2 (Homo sapiens) (UniProt P04626)
[15] = biological target: Focal adhesion kinase 1 (Homo sapiens) (UniProt Q05397)
[16] = biological target: Tyrosine-protein kinase Fgr (Homo sapiens) (UniProt P09769)
[17] = test system: Receptor-type tyrosine-protein kinase FLT3 (Homo sapiens), P36888 [D835H]
[18] = test system: Receptor-type tyrosine-protein kinase FLT3 (Homo sapiens), P36888 [UNDEFINED MUTATION]
[19] = biological target: Cyclin-G-associated kinase (Homo sapiens) (UniProt O14976)
[20] = test system: eIF-2-alpha kinase GCN2 (Homo sapiens), Q9P2K8 [S808G]
[21] = biological target: Insulin receptor (Homo sapiens) (UniProt P06213)
[22] = biological target: Insulin receptor-related protein (Homo sapiens) (UniProt P14616)
Insulin receptor-related protein (Homo sapiens), sequence (P14616 27-742 limits assumed): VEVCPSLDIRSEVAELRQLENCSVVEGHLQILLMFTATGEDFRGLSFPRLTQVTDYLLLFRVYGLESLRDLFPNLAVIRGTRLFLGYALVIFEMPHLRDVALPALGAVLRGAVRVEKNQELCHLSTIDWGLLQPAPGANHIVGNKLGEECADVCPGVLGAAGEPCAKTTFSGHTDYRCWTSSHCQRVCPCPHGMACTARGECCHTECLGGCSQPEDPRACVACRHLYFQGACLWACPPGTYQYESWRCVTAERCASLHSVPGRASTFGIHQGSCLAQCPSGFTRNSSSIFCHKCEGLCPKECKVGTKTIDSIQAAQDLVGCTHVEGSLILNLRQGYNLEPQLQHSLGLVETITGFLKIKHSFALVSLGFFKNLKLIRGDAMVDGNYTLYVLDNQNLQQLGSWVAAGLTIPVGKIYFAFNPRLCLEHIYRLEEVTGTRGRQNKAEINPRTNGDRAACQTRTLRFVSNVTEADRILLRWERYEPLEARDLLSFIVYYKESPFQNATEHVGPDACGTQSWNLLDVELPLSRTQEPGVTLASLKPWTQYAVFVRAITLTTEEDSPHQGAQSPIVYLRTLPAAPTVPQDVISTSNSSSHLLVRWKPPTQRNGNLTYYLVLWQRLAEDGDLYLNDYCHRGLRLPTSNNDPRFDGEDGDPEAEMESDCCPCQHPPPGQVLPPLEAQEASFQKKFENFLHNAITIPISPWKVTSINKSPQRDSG
Insulin receptor-related protein (Homo sapiens), sequence (P14616 747-1297 limits assumed): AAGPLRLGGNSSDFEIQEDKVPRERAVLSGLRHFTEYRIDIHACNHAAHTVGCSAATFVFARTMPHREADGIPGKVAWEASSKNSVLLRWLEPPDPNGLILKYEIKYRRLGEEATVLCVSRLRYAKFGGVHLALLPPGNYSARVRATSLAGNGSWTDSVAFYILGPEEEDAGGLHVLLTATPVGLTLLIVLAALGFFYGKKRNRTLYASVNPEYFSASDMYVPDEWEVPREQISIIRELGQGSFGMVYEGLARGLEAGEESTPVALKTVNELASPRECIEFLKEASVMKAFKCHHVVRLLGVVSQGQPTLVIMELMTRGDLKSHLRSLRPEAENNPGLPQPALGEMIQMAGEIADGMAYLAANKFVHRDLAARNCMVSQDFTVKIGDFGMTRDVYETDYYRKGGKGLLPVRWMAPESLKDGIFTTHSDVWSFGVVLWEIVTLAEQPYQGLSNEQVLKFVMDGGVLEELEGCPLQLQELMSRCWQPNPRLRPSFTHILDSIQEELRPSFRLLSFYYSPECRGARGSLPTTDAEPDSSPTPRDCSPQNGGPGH

[23] = biological target: Tyrosine-protein kinase JAK1 (Homo sapiens) (UniProt P23458)
[24] = biological target: Mitogen-activated protein kinase 9 (Homo sapiens) (UniProt P45984)
[25] = biological target: Mast/stem cell growth factor receptor Kit (Homo sapiens) (UniProt P10721)
[26] = biological target: Serine/threonine-protein kinase STK11 (Homo sapiens) (UniProt Q15831)
Serine/threonine-protein kinase STK11 (Homo sapiens), sequence (Q15831 whole entry): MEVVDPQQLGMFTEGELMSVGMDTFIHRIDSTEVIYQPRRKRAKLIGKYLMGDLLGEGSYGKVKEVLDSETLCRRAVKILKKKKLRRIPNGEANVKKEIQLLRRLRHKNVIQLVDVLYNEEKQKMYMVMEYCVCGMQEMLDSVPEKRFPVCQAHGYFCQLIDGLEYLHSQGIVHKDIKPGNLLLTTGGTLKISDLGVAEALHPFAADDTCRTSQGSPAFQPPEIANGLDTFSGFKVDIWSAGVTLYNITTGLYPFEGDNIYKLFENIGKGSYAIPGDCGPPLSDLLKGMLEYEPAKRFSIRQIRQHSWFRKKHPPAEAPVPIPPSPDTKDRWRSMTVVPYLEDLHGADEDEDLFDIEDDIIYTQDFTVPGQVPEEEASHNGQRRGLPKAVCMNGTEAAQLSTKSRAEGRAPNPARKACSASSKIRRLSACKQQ

[27] = biological target: Dual specificity mitogen-activated protein kinase kinase 6 (Homo sapiens) (UniProt P52564)
[28] = test system: Hepatocyte growth factor receptor (Homo sapiens), P08581 [M1250T]
[29] = biological target: Serine/threonine-protein kinase 38 (Homo sapiens) (UniProt Q15208)
Serine/threonine-protein kinase 38 (Homo sapiens), sequence (Q15208 2-465 limits assumed): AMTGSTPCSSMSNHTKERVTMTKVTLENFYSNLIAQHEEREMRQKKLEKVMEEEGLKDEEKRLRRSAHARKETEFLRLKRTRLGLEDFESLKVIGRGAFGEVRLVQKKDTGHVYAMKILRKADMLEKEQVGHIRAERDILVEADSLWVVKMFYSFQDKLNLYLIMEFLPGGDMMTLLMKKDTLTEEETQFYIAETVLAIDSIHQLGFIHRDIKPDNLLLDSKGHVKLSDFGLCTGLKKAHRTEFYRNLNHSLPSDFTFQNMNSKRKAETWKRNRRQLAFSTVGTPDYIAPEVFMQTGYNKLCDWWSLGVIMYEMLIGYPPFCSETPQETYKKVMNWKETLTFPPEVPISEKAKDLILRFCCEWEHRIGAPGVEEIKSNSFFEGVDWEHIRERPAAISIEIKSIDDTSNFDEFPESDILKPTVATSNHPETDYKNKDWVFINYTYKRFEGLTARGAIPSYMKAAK

[30] = biological target: Mitogen-activated protein kinase 12 (Homo sapiens) (UniProt P53778)
[31] = biological target: Cyclin-dependent kinase 17 (Homo sapiens) (UniProt Q00537)
[32] = biological target: 1-phosphatidylinositol 3-phosphate 5-kinase (Homo sapiens) (UniProt Q9Y2I7)
[33] = biological target: Phosphatidylinositol 4-phosphate 5-kinase type-1 gamma (Homo sapiens) (UniProt O60331)
[34] = biological target: Membrane-associated tyrosine- and threonine-specific cdc2-inhibitory kinase (Homo sapiens) (UniProt Q99640)
[35] = biological target: Ribosomal protein S6 kinase alpha-1 (Homo sapiens) (UniProt Q15418)
[36] = biological target: STE20-like serine/threonine-protein kinase (Homo sapiens) (UniProt Q9H2G2)
[37] = biological target: Tyrosine-protein kinase Srms (Homo sapiens) (UniProt Q9H3Y6)
[38] = biological target: Serine/threonine-protein kinase 16 (Homo sapiens) (UniProt O75716)
[39] = biological target: Serine/threonine-protein kinase 35 (Homo sapiens) (UniProt Q8TDR2)
[40] = biological target: Tyrosine-protein kinase SYK (Homo sapiens) (UniProt P43405)
[41] = biological target: Mitogen-activated protein kinase kinase kinase 7 (Homo sapiens) (UniProt O43318)
[42] = biological target: Tyrosine-protein kinase Tec (Homo sapiens) (UniProt P42680)
[43] = biological target: TGF-beta receptor type-2 (Homo sapiens) (UniProt P37173)
TGF-beta receptor type-2 (Homo sapiens), sequence (P37173 whole entry): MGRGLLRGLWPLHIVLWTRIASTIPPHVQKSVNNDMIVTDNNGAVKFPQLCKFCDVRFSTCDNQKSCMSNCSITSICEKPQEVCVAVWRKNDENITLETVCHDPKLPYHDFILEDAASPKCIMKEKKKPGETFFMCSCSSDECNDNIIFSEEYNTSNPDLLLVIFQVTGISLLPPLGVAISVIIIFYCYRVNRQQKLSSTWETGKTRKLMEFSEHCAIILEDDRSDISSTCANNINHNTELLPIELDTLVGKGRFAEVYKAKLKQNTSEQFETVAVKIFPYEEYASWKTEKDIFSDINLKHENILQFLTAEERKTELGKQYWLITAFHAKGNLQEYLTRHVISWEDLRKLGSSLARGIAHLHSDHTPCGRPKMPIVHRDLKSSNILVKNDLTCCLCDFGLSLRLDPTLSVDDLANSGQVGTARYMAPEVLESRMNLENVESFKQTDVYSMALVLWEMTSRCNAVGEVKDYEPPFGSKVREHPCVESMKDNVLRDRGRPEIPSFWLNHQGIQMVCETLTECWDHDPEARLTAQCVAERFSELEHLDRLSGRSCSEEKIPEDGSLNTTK

[44] = biological target: High affinity nerve growth factor receptor (Homo sapiens) (UniProt P04629)
[45] = biological target: Tyrosine-protein kinase TXK (Homo sapiens) (UniProt P42681)
[46] = biological target: Non-receptor tyrosine-protein kinase TYK2 (Homo sapiens) (UniProt P29597)
Non-receptor tyrosine-protein kinase TYK2 (Homo sapiens), sequence (P29597 whole entry): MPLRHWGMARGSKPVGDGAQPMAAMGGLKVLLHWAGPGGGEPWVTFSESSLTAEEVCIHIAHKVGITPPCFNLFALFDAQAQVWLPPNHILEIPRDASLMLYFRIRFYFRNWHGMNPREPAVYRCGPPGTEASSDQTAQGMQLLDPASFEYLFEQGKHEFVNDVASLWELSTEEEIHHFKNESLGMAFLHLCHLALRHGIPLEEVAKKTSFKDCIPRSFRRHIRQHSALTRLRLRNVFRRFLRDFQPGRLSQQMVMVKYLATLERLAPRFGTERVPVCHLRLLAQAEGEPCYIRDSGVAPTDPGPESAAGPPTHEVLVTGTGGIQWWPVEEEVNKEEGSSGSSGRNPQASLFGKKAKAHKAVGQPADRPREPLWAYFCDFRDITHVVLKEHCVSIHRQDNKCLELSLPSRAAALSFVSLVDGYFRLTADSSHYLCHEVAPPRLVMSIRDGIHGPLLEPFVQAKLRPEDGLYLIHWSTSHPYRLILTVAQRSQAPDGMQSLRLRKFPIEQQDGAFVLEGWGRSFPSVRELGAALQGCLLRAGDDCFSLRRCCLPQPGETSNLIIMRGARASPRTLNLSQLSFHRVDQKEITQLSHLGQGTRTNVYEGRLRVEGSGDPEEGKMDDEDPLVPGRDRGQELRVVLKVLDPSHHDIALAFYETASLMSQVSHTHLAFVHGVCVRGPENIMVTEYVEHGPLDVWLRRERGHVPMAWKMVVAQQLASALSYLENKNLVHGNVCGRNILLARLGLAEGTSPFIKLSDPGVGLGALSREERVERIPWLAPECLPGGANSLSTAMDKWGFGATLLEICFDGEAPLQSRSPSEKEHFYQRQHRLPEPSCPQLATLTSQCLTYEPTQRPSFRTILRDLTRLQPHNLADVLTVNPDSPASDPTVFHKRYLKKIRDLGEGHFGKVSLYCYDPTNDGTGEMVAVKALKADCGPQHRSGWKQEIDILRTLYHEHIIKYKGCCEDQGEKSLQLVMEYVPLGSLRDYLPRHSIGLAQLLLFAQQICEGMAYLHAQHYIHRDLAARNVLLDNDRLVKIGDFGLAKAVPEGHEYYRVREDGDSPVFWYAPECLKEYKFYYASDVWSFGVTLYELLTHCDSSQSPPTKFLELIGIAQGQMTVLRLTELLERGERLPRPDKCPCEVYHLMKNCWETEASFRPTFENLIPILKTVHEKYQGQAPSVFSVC

For `CS(=O)(=O)N1CCCC(NC(=O)[C@H](CCC2CCCCC2)NC(=O)c2ccc(CNc3ncnc4c3nnn4-c3ccccc3)cc2)C1` (some centres not stated) [SR-301], which residual activity [1] is on record?
The residual activity was 89%.

What about the residual activity [2] of the same molecule?
Its residual activity is 88%.

And the residual activity [3]?
The residual activity was 100%.

And the residual activity [4]?
Its residual activity is 100%.

What about the residual activity [5] of the same molecule?
Its residual activity is 79%.

What about the residual activity [6] of the same molecule?
Its residual activity is 84%.

And the residual activity [7]?
Its residual activity is 91%.

What about the residual activity [8] of the same molecule?
The residual activity was 79%.

What about the residual activity [9] of the same molecule?
The residual activity was 79%.

What about the residual activity [10] of the same molecule?
The residual activity was 100%.

And the residual activity [11]?
The residual activity was 85%.

And the residual activity [12]?
The residual activity was 96%.

What about the residual activity [13] of the same molecule?
The residual activity was 100%.

And the residual activity [14]?
The residual activity was 100%.

What about the residual activity [15] of the same molecule?
Its residual activity is 100%.

What about the residual activity [16] of the same molecule?
The residual activity was 88%.

What about the residual activity [17] of the same molecule?
Its residual activity is 94%.

And the residual activity [18]?
Its residual activity is 100%.

What about the residual activity [19] of the same molecule?
The residual activity was 95%.

What about the residual activity [20] of the same molecule?
Its residual activity is 100%.

What about the residual activity [21] of the same molecule?
The residual activity was 100%.

And the residual activity [22]?
The residual activity was 100%.

What about the residual activity [23] of the same molecule?
The residual activity was 89%.

What about the residual activity [24] of the same molecule?
Its residual activity is 83%.

What about the residual activity [25] of the same molecule?
The residual activity was 89%.

And the residual activity [26]?
Its residual activity is 100%.

And the residual activity [27]?
The residual activity was 67%.

What about the residual activity [28] of the same molecule?
Its residual activity is 87%.

What about the residual activity [29] of the same molecule?
Its residual activity is 83%.

What about the residual activity [30] of the same molecule?
Its residual activity is 100%.

What about the residual activity [31] of the same molecule?
The residual activity was 86%.

And the residual activity [32]?
Its residual activity is 61%.

What about the residual activity [33] of the same molecule?
Its residual activity is 85%.

And the residual activity [34]?
Its residual activity is 74%.

And the residual activity [35]?
The residual activity was 100%.

What about the residual activity [36] of the same molecule?
The residual activity was 100%.

What about the residual activity [37] of the same molecule?
The residual activity was 98%.

What about the residual activity [38] of the same molecule?
Its residual activity is 100%.

What about the residual activity [39] of the same molecule?
Its residual activity is 100%.

What about the residual activity [40] of the same molecule?
Its residual activity is 88%.

And the residual activity [41]?
The residual activity was 100%.

What about the residual activity [42] of the same molecule?
The residual activity was 100%.

And the residual activity [43]?
The residual activity was 93%.

And the residual activity [44]?
Its residual activity is 100%.

What about the residual activity [45] of the same molecule?
The residual activity was 77%.

What about the residual activity [46] of the same molecule?
Its residual activity is 100%.

What does the source list for `CS(=O)(=O)N1CCCC(NC(=O)[C@H](CCC2CCCCC2)NC(=O)c2ccc(CNC(=O)c3cnc4ccccn34)cc2)C1` (some centres not stated) [SR-302]?
residual activity [1]: 37%; residual activity [2]: 70%; residual activity [3]: 100%; residual activity [4]: 100%; residual activity [5]: 96%; residual activity [6]: 92%; residual activity [7]: 100%; residual activity [8]: 100%; residual activity [9]: 100%; residual activity [10]: 100%; residual activity [11]: 100%; residual activity [12]: 84%; residual activity [13]: 0%; residual activity [14]: 100%; residual activity [15]: 92%; residual activity [16]: 87%; residual activity [17]: 100%; residual activity [18]: 100%; residual activity [19]: 96%; residual activity [20]: 100%; residual activity [21]: 100%; residual activity [22]: 100%; residual activity [23]: 100%; residual activity [24]: 90%; residual activity [25]: 63%; residual activity [26]: 51%; residual activity [27]: 72%; residual activity [28]: 69%; residual activity [29]: 81%; residual activity [30]: 100%; residual activity [31]: 80%; residual activity [32]: 100%; residual activity [33]: 100%; residual activity [34]: 100%; residual activity [35]: 74%; residual activity [36]: 99%; residual activity [37]: 71%; residual activity [38]: 100%; residual activity [39]: 100%; residual activity [40]: 93%; residual activity [41]: 94%; residual activity [42]: 94%; residual activity [43]: 91%; residual activity [44]: 100%; residual activity [45]: 91%; residual activity [46]: 86%
